# Data taken from patent US12133846B2, “Electrophilic androgen receptor (AR) antagonists for AR downregulation and ferroptosis induction in cancer cells” (priority 2019, dated 2024).
# What was measured:
# FL AR and AR-V7 [1] = molecular target: T1, FL AR and AR-V7 (Homo sapiens, UniProt P10275); test: Western blotting of FL AR and AR-V7 in VCaP cells; format: cell-based; details: full media, 16 h, 2-63, 12b 5 and 15 μM, Enz 10 μM, SAHA 1 μM
# T1 construct: Whole cell lysates were subjected to Western blotting and probed with the indicated antibodies; endogenous in cells; host or cells: VCaP
# T1 sequence (P10275 1-920): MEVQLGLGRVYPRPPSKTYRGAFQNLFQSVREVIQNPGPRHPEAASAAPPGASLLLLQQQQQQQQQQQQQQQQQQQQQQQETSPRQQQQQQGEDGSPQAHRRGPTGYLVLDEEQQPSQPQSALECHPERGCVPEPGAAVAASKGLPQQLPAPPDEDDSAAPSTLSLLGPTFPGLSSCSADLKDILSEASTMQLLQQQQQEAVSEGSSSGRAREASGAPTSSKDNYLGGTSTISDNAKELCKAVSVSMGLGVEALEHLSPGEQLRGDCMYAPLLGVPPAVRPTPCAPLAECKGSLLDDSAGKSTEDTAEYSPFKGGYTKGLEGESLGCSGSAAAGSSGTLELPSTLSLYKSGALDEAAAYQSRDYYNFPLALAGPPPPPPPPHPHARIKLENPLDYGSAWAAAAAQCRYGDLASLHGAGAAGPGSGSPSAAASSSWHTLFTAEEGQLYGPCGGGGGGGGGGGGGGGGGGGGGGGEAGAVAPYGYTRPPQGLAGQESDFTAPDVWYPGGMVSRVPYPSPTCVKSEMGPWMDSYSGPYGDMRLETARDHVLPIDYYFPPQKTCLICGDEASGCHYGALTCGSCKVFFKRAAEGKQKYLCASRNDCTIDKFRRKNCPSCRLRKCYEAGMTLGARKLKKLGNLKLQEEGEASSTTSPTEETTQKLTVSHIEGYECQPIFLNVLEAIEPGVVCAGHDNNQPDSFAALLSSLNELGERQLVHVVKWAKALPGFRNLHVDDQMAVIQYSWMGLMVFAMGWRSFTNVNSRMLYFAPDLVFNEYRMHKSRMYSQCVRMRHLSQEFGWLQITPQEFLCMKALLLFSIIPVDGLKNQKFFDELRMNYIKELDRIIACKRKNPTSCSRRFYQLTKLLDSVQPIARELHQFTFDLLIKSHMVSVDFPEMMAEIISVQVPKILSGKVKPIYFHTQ
# Method: (§1) Western Blotting. […] Proteins in cell lysates (40 μg) were separated using electrophoresis on SDS-PAGE and transferred onto PVDF (polyvinylidenedifluoride) membranes. Membranes were blocked in 5% fat-free milk followed by incubation with primary antibodies overnight at 4° C., and the secondary horseradish peroxidase-conjugated anti-rabbit or anti-mouse antibodies. The blots were developed in the Enhanced Chemiluminescence mixture and detected by ImageQuant™ LAS 4000 imaging system (GE). Density of protein bonds were calculated and analyzed by using imageJ software downloaded from the National Institute of Health website.
# FL AR and AR-V7 [2] = molecular target: T2, FL AR and AR-V7 (Homo sapiens, UniProt P10275); test: Western blotting of FL AR and AR-V7 in VCaP cells; format: cell-based; details: full media, 16 h, 2-63, 12b 5 and 15 μM, Enz 10 μM
# T2 construct: Whole cell lysates were subjected to Western blotting and probed with the indicated antibodies; endogenous in cells; host or cells: VCaP
# T2 sequence (P10275 1-644 isoform P10275-3): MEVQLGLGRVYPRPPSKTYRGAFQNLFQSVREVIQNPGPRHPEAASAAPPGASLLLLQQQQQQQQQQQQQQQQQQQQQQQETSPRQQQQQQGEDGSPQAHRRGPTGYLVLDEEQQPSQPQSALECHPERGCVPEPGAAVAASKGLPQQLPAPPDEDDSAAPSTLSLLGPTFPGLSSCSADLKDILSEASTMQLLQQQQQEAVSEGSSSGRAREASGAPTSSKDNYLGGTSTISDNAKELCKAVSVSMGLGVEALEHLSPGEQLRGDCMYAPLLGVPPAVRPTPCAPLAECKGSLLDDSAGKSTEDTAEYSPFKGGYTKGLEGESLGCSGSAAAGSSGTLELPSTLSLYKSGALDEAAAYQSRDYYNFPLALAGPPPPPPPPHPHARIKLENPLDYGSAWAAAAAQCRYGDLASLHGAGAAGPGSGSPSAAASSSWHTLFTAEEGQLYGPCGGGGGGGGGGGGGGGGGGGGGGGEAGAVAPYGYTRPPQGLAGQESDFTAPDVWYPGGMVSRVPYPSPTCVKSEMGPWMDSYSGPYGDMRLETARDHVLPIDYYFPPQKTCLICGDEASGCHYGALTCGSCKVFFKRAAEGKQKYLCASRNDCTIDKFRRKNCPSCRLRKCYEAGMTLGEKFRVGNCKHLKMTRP
# Method: as §1
# FL AR and AR-V7 [3] = test: Western blotting of FL AR and AR-V7 in VCaP cells; format: cell-based; details: 10 μM, 12 h time course
# Method: as §1
# Hsp90, Hsp70, HO-1 = test: Western blotting of Hsp90, Hsp70 and HO-1 in VCaP cells; format: cell-based
# Method: as §1
# 22Rv1 cells = test: Colony formation assay, 22Rv1 cells; format: cell-based; details: 2-63 1 μM plus BSO 5 μM, 24 h, then drug-free medium 11 days
# Method: Colony formation assay. Cells (22Rv1 or C4-2) were seeded in six-well plates (1,000/well) and cultured overnight. Cells were then treated with 2-63 (1 μM in 22Rv1; 2.5 μM in C4-2), BSO (5 μM) alone or in combination for 24 h. Cells were washed and cultured in a drug-free medium (22Rv1, 11 days; C4-2, 8 days). On the last day, the medium was removed, cells were washed with PBS and fixed with methanol. The colonies were stained with crystal violet solution for 3 h at room temperature and air-dried.
# [4] = system: AR, AR-V7, c-Myc, HO-1, Hsp70; test: Western blotting under BSO combination, VCaP cells; format: cell-based; details: VCaP, 2-63 2.5 μM plus BSO 100 μM
# Method: It was first investigated if iron chelators or antioxidants could rescue the viability of drug combination-treated cells. […] HO-1 catalyzes the decomposition of heme into carbon monoxide, biliverdin, and Fe^2+. […] Both Fer-1 and the lipophilic antioxidant α-Toc can effectively scavenge radicals in phosphatidylcholine lipid bilayers and break the redox cycle that generates lipid hydroperoxide.
# as §1
# PARP cleavage = PARP cleavage under 2-63 plus BSO in PCa cells; format: cell-based; details: 2-63 plus BSO combination, data not shown
# Source text: 2-63 and BSO combination induces ferroptosis in PCa cells. […] Because both ITC and BSO change redox balance, and because the significant upregulation of HO-1 by 2-63 (FIG. 21) may increase free ferrous iron (Fe2+) inside cells, ferroptosis, a recently defined non-apoptotic cell death mechanism that occurs due to ROS and iron-caused oxidative lipid damage (Stockwell, et al., Cell 2017, 171, 273-285) was explored.
# C4-2 cells = details: 5 μM, DHT 1 nM, charcoal stripped FBS, 6 days
# Method: The medium and drug were refreshed every two days.
# The anti-PCa potential of 2-63 was further characterized by assessing its inhibitory effects on DHT-stimulated C4-2 cell growth. […] C4-2 cells were cultured in charcoal-stripped, steroid-free medium and cells were stimulated with androgen.
# VCaP cells = test: BSO pretreatment plus drug, MTT viability, VCaP cells
# Method: Cell viability was then assessed using an MTT assay.
# PCa cells (6×10^3 cells/well) were seeded into 96-well plates overnight and then treated with indicated compounds at indicated concentrations and time durations. The MTT (3-(4, 5-Dimethylthiazol-2-yl)-2,5-diphenyltetrazolium bromide) assay was performed according to the standard protocol. Briefly, MTT (0.5 mg/mL) was incubated with cells at 37° C. for 3 hours. Supernatant was removed, followed by the addition of dimethyl DMSO (100 μl). After incubation for 30 minutes at 37° C., absorbance was read at 570 nm on a microplate reader.
compound,measurement,setting,value
"CC(=O)N[C@H](CSC(=S)NCCCCCCc1ccc(N2C(=S)N(c3ccc(C#N)c(C(F)(F)F)c3)C(=O)C2(C)C)cn1)C(=O)O [2-63, N-acetyl-S-((6-(5-(3-(4-cyano-3-(trifluoromethyl)phenyl)-5,5-dimethyl-4-oxo-2-thioxoimidazolidin-1-yl)pyridine-2-yl)hexyl)carbamothioyl)-D-cysteine]",FL AR expression,FL AR and AR-V7 [1],dose-dependently decreased
same,AR-V7 expression,FL AR and AR-V7 [2],dose-dependently decreased
same,FL AR and AR-V7 in time course,FL AR and AR-V7 [3],time-dependent decline
same,Hsp70 and HO-1 in time course,"Hsp90, Hsp70, HO-1; 10 μM, 12 h time course",notably increased after 6 h
same,HO-1 protein level,"Hsp90, Hsp70, HO-1; 16 h, 5 and 15 μM",dose-dependently upregulated
same,Hsp70 protein level,"Hsp90, Hsp70, HO-1; 16 h, 5 and 15 μM",significantly induced
same,Hsp90 protein level,"Hsp90, Hsp70, HO-1; 16 h, 5 and 15 μM",did not change
same,colony formation of 22Rv1 cells,22Rv1 cells,very efficiently suppressed colony formation
same,"AR/AR-V7, c-Myc and HO-1 expression versus individual drugs",[4],more effectively downregulated AR/AR-V7 and c-Myc and upregulated the cellular stress marker HO-1
same,PARP cleavage,PARP cleavage,did not cause detectable PARP cleavage
same,viability reduction of DHT-stimulated C4-2 cells,C4-2 cells,70%
same,"combinatorial effect with BSO (interaction index), VCaP","VCaP cells; BSO 2.5-10 μM 16 h pretreatment, then 2-63 1-10 μM 24 h, synergism = index <0.8",synergistically reduced viability
same,"viability suppression, VCaP cells","VCaP cells; BSO plus 2-63 reduced to 2.5 μM, 24 h",60%
